Like-named read-outs stand apart in the source and are kept apart here.
Assays:
[1] = test system: mouse spleen cells stimulated with phytohemagglutinin (PHA); assay: suppression of blastogenic response of mouse spleen cells by PHA; assay type: cell-based; conditions: PHA (1/100); for inhibition at 0.01 µg/mL / inhibition at 0.1 µg/mL / inhibition at 1 µg/mL: Mus musculus, 76 h
Experimental: The effect on the mouse blastogenic response of mouse spleen cells stimulated with phytohemagglutinin (PHA) or with pokeweed mitogen (PWM) was examined as follows:
The spleen was resected from 5- to 8-week-old male […] BALB/c mice, and single cell suspension of spleen cells was prepared by using the RPMI1640 culture medium supplemented with 5% FCS. After hemolytic treatment, the concentration of the suspension was adjusted to 5×10^6 cells/ml by using the RPMI1640 culture medium supplemented with 10^-4 M 2-mercaptoethanol and 20% FCS, to which PHA or PWM was added. One hundred μl of the cell suspension was added to each well of 96-well microculture plates to which 100 μl per well of the test solution had been added (5×10^5 mouse spleen cells per well). After culturing at 37° C. in an atmosphere of 5% carbon dioxide for 72 hours, 0.5 μCi/well of ^3 H-thymidine was added and cultured under the same conditions for further 4 hours. After termination of the culture, the cells were harvested by a cell harvester, and the radioactivity incorporated into the cells was measured by a liquid scintillation counter, which was used as the index of blastogenic response of mouse spleen cells.

[2] = cytotoxicity to tumor cell line PC-6; assay type: cell-based, human; conditions: human, pc-6 cells, read-out: Suppression
Experimental: (§1) Cytotoxicity to human tumor cell lines was examined as follows:
(§2) Cells of human cell lines, K562, MOLT4, U937, HL60, KATOIII, KB, PC-6, PC-14 and CCRF-CEM were separately suspended to the concentration of 2×10^5 cells/ml in the RPMI1640 culture medium supplemented with 20% FCS. Fifty μl of this suspension was added to each well of 96-well microculture plates to which 50 μl of the test solution had been added. After culturing at 37° C. in an atmosphere of 5% carbon dioxide for 72 hours, the absorbancy at 550 nm was measured in the same way as the colorimetry using MTT in Experimental Example 1, and the percent suppression was calculated in the same manner as in Experimental Example 14, which was used as the index of cytotoxicity.

[3] = test system: PC-6; assay: cytotoxicity to tumor cell line PC-6; assay type: cell-based, human
Experimental: as §1, §2

[4] = test system: IL3 production in PHA-stimulated mouse spleen cells; assay: suppression of IL3 production in PHA-stimulated mouse spleen cells; assay type: cell-based; conditions: for inhibition at 0.01 µg/mL / inhibition at 0.1 µg/mL / inhibition at 1 µg/mL / inhibition at 10 µg/mL: Mus musculus, read-out: Suppression
Experimental: (§3) The supernatant of mouse allogenic MLC and the supernatant of PHA-stimulated mouse spleen cells culture were prepared in the same manner as in Experimental Example 6.
(§4) The IL3 activity in the supernatant described above was assayed as follows: IL3-dependent mouse cell line FDC-P2 cells were suspended in the RPMI1640 culture medium supplemented with 10% FCS to the concentration of 10^5 cells/ml, and 100 μl of the suspension was added to each well of 96-well microculture plates in which 100 μl per well of the two-fold serial dilutions of the supernatant described above had been placed. After culturing at 37° C. in an atmosphere of 5% carbon dioxide for 20 hours, 0.5 μCi/well of ^3 H-thymidine was added, and cultured for further 4 hours under the same conditions. After termination of the culture, the cells were harvested by a cell harvester, and the radioactivity incorporated into the cells was measured by a liquid scintillation counter. The IL3 activity was expressed in U/ml as the titer at the concentrations at which the amount of ^3 H-thymidine incorporated was 50% of the maximum.

[5] = test system: KATOIII; assay: in vitro; assay type: cell-based, human
[6] = test system: IL2 production in mouse allogenic MLC; assay: suppression of IL2 production in mouse allogenic MLC; assay type: cell-based; conditions: for inhibition at 0.01 µg/mL / inhibition at 0.1 µg/mL / inhibition at 1 µg/mL / inhibition at 10 µg/mL: Mus musculus, 48 h, read-out: Suppression
Experimental: Mouse allogenic MLC was carried out as follows:
The respondor cell suspension and the stimulator cell suspension (0.5 ml each) prepared in the same way as in Experimental Example 1 together with 1 ml of test substance were added to 24-well multidishes, and cultured at 37° C. in an atmosphere of 5% carbon dioxide for 2 days. After termination of the culture, the supernatant was collected and used as the supernatant of mouse allogenic MLC.
The IL2 activity in the supernatants of mouse allogenic MLC and the supernatants of PHA-stimulated mouse spleen cells culture was assayed as follows: IL2-dependent mouse cell line CTLL-2 cells were suspended in the RPMI1640 culture medium supplemented with 30% FCS to the concentration of 10^5 cells/ml, and 100 μl of the suspension was added to each well of 96-well microculture plates in which 100 μl of the supernatant of the MLC described above had been placed. After culturing at 37° C. in an atmosphere of 5% carbon dioxide for 20 hours, 0.5 μCi/well of ^3 H-thymidine was added, and incubated for 4 hours under the same conditions. After termination of the culture, the cells were harvested by a cell harvester, and the radioactivity incorporated into the cells was measured by a liquid scintillation counter. IL2 activity was expressed in U/ml as the titer at various concentrations at which the ^3 H-thymidine incorporation was 50% of the maximum.

[7] = test system: IL3 production in mouse allogenic MLC; assay: suppression of IL3 production in mouse allogenic MLC; assay type: cell-based; conditions: for inhibition at 0.01 µg/mL / inhibition at 0.1 µg/mL / inhibition at 1 µg/mL / inhibition at 10 µg/mL: Mus musculus, read-out: Suppression
Experimental: as §3, §4

## CCCCCCC(=O)CCCCCC/C=C/CC(O)C(O)C(N)(CO)C(=O)O (stereo not shown) [Example 1]
[1]; 0.01 μg/ml
  inhibition at 0.01 µg/mL: 71.9%
  3H-thymidine uptake: 3238 cpm
[1]; 0.1 μg/ml
  inhibition at 0.1 µg/mL: 66.8%
  3H-thymidine uptake: 3624 cpm
[1]; 1 μg/ml
  inhibition at 1 µg/mL: 92.4%
  3H-thymidine uptake: 1686 cpm
[2]; 0.1 μg/ml
  cytotoxicity at 72 h: 9.9%
[2]; 1.0 μg/ml
  cytotoxicity at 72 h: 23.2%
[2]; 100.0 μg/ml
  cytotoxicity at 72 h: 100%
[3]; 0.01 μg/ml
  Absorbancy: 0.244
[3]; 0.1 μg/ml
  Absorbancy: 0.245
[3]; 1.0 μg/ml
  Absorbancy: 0.209
[3]; 10.0 μg/ml
  Absorbancy: 0.202
[3]; 100.0 μg/ml
  Absorbancy: 0.000
[4]; 0.01 μg/ml
  IL3 activity: 4.0 U/ml
[4]; 0.1 μg/ml
  IL3 activity: < 2 U/ml
[4]; 1 μg/ml
  IL3 activity: < 2 U/ml
[4]; 10 μg/ml
  IL3 activity: < 2 U/ml
[4]
  inhibition at 0.01 µg/mL: 76.6%
  inhibition at 0.1 µg/mL: > 90%
  inhibition at 1 µg/mL: > 90%
  inhibition at 10 µg/mL: > 90%
[5]; 0.01 μg/ml
  Absorbancy: 0.990
[5]; 0.1 μg/ml
  Absorbancy: 0.972
[5]; 1.0 μg/ml
  Absorbancy: 0.961
[5]; 10.0 μg/ml
  Absorbancy: 0.869
[5]; 100.0 μg/ml
  Absorbancy: 0.041
[6]; 0.01 μg/ml
  IL2 activity: 4.0 U/ml
[6]; 0.1 μg/ml
  IL2 activity: 2.0 U/ml
[6]; 1 μg/ml
  IL2 activity: 1.1 U/ml
[6]; 10 μg/ml
  IL2 activity: < 1 U/ml
[6]
  inhibition at 0.01 µg/mL: 59.2%
  inhibition at 0.1 µg/mL: 79.6%
  inhibition at 1 µg/mL: 88.8%
  inhibition at 10 µg/mL: > 90%
[7]; 0.01 μg/ml
  IL3 activity: 13.9 U/ml
[7]; 0.1 μg/ml
  IL3 activity: 12.1 U/ml
[7]; 1 μg/ml
  IL3 activity: 9.8 U/ml
[7]; 10 μg/ml
  IL3 activity: < 2 U/ml
[7]
  inhibition at 0.01 µg/mL: 62.2%
  inhibition at 0.1 µg/mL: 67.1%
  inhibition at 1 µg/mL: 73.4%
  inhibition at 10 µg/mL: > 95%

## CCCCCCC(=O)CCCCCC/C=C/CC1OC(=O)C(N)(CO)C1O (stereo not shown) [Example 4]
[1]; 0.01 μg/ml
  inhibition at 0.01 µg/mL: 34.5%
  3H-thymidine uptake: 6074 cpm
[1]; 0.1 μg/ml
  inhibition at 0.1 µg/mL: 57.8%
  3H-thymidine uptake: 4312 cpm
[1]; 1 μg/ml
  inhibition at 1 µg/mL: 71%
  3H-thymidine uptake: 3308 cpm
[2]; 0.1 μg/ml
  cytotoxicity at 72 h: 15.1%
[2]; 1.0 μg/ml
  cytotoxicity at 72 h: 6.2%
[2]; 10.0 μg/ml
  cytotoxicity at 72 h: 6.9%
[2]; 100.0 μg/ml
  cytotoxicity at 72 h: 95.2%
[3]; 0.1 μg/ml
  Absorbancy: 0.247
[3]; 1.0 μg/ml
  Absorbancy: 0.273
[3]; 10.0 μg/ml
  Absorbancy: 0.271
[3]; 100.0 μg/ml
  Absorbancy: 0.014
[4]; 0.01 μg/ml
  IL3 activity: 9.1 U/ml
  inhibition at 0.01 µg/mL: 46.8%
[4]; 0.1 μg/ml
  IL3 activity: 2.8 U/ml
  inhibition at 0.1 µg/mL: 83.6%
[4]; 1 μg/ml
  IL3 activity: 2.3 U/ml
  inhibition at 1 µg/mL: 86.5%
[4]; 10 μg/ml
  IL3 activity: < 2 U/ml
  inhibition at 10 µg/mL: > 90%
[5]; 0.1 μg/ml
  Absorbancy: 0.407
[5]; 1.0 μg/ml
  Absorbancy: 0.401
[5]; 10.0 μg/ml
  Absorbancy: 0.319
[5]; 100.0 μg/ml
  Absorbancy: 0.009
[6]; 0.01 μg/ml
  IL2 activity: 4.0 U/ml
  inhibition at 0.01 µg/mL: 59.2%
[6]; 0.1 μg/ml
  IL2 activity: 1.7 U/ml
  inhibition at 0.1 µg/mL: 82.7%
[6]; 1 μg/ml
  IL2 activity: < 1 U/ml
  inhibition at 1 µg/mL: > 90%
[6]; 10 μg/ml
  IL2 activity: < 1 U/ml
  inhibition at 10 µg/mL: > 90%
[7]; 0.01 μg/ml
  IL3 activity: 26.0 U/ml
[7]; 0.1 μg/ml
  IL3 activity: 16.0 U/ml
  inhibition at 0.1 µg/mL: 56.5%
[7]; 1 μg/ml
  IL3 activity: 8.6 U/ml
  inhibition at 1 µg/mL: 76.6%
[7]; 10 μg/ml
  IL3 activity: 6.1 U/ml
  inhibition at 10 µg/mL: 83.4%
[7]
  inhibition at 0.01 µg/mL: 29.3%

Source: patent US5219884A, “Immunosuppressant” (Taito Co., Ltd., priority 1990, dated 1993)
